Laboratory results reported in patent US9028463B2 (priority 2008, dated 2015).

Tests used:
type A strain (H1N1) = test system: type A strain (H1N1); design: species or system ddY mice; details: mouse, in vivo
type B strain = test system: type B strain; design: species or system ddY mice; details: mouse, in vivo

CCCCCCCCCCCCO [lauryl alcohol]
HI antibody titer for type A with lauryl alcohol as adjuvant in combination (type A strain (H1N1)): HI antibody titer for type A increased
HI antibody titer for type B with lauryl alcohol as adjuvant in combination (type B strain): remarkable effect was exerted on type B
